Patent US6627732B1, “Glutathione derivatives and their dosage forms” (Teijin Limited, priority 1998, dated 2003)

Columns and labels:
swine liver esterase = experiment: Decomposition of glutathione derivatives by swine liver esterase (physiological stability); type: in vitro ADME; conditions: BSA/D-PBS pH 7.4, 196-244 μg/ml
Experimental: (§1) (1) Bovine serum albumin (hereinafter referred to as BSA), Dulbecco's phosphate buffered saline (hereinafter referred to as D-PBS), swine liver esterase, and rabbit liver esterase were purchased from Sigma, 6-week old male SD rats were purchased from Nippon SLC, and 12-week old or older male Japanese white rabbits were purchased from Ichikawaya. On the day of the incubation experiment described below, blood was drawn from the animals in the presence of heparin, and plasma was separated therefrom for use. Human plasma was obtained from normal healthy males after obtaining their consent.
(§2) (2) The glutathione derivatives described in the Examples and Comparative Examples of the present invention were incubated for a fixed time in an enzyme solution having the following composition. Acetonitrile was added to the reaction mixture to inactivate the enzyme thereby to stop the reaction. The concentration of the glutathione derivatives in the deproteinized supernatant was measured by HPLC. For each time point of the esterase enzyme experiment, the mean values from two measurement or more were determined, and for the rats and rabbits the mean values of plasma samples from three individuals were determined. For some of the experiment data, changes with time of percentages relative to initial concentration of the glutathione derivative are shown in FIGS. 2 to 4.
(§3) Swine liver esterase and rabbit liver esterase experiment
(§4) 30 mg-BSA/ml-D-PBS (pH 7.4): 36 to 45 parts
(§5) Swine or rabbit liver esterase/D-PBS: 4-5 parts
(§6) 10 mg-glutathione derivative/ml-ethanol: one part (the final concentration in the reaction mixture is 196-244 μg/ml)

rabbit liver esterase = experiment: Decomposition of glutathione derivatives by rabbit liver esterase (physiological stability); type: in vitro ADME; conditions: BSA/D-PBS pH 7.4, 196-244 μg/ml
Experimental: as §1, §2, §3, §4, §5, §6

[1] = Stability in rabbit plasma; conditions: heparinized plasma, 250-323 μg/ml
Experimental: as §1, §2
Rat, rabbit, and human plasma
Heparinized plasma: 30 to 40 parts
10 mg-glutathione derivative/ml-ethanol: one part (the final concentration in the reaction mixture is 250-323 μg/ml)

[2] = tested on: rat models of suppressed hematopoietic function by 5-FU administration; experiment: Ratio of segmented neutrophils in rat models of suppressed hematopoietic function by 5-FU (Example 27); type: in vivo; conditions: 5-FU rats
Experimental: (1) The animals used are the same as in Example 26. The keeping condition was a temperature of 23±2° C. and a humidity of 55±15%.
(2) The creation of the 5-FU administration model, the administration of test substances, and the blood collection schedule were carried out in a similar manner to Example 26. Hematological tests were carried out using the Toa multi-channel automatic cell counter K-4500 or Toa Sysmex CC-180A automatic cell counter, differential counts of white blood cells were carried out by May-Giemsa stain followed by microscopic examination, reticulocytes were counted by the Brecher method.
(3) Using the same schedule as in Example 26, the negative control group that only received the fat emulsion after 5-FU administration, the group that received the glutathione derivative of Example 4 at 30 mg/kg-body weight/day as a test substance together with the fat emulsion, the group that similarly received the glutathione derivative of Example 1 at 10 or 30 mg/kg-body weight/day, and the group that received the glutathione derivative of Example 7 at 30 or 60 mg/kg-body weight/day were studied.

[3] = Pharmacokinetics after intravenous administration to rabbits, 2-compartment model (Example 25); type: in vivo, rabbit; conditions: iv auricular vein 2 ml/kg, fat emulsion (Comparative Ex. 1: HPCD/glucose solution)
Text: For the glutathione derivative of the present invention having a long-chain ester having 12 carbons or more and the glutathione derivatives of the conventional technology of Comparative Examples 1 and 2, kinetics in the blood were compared in rabbits that are a species having allow esterase activity in the blood.
(1) Male Japanese white rabbits, 12-week old or older, were purchased from Ichikawaya, and those rabbits that became 15-week old or older and whose body weight reached about 3 kg were used for the experiment. During the period up to the experiment, the animals were allowed free access to the animal feed and drinking water and were kept at a temperature of 24±2° C. and a humidity of 55±5%.
(2) The glutathione derivative having a long-chain ester of 12 carbons or more and the glutathione derivative of Comparative Example 2 were prepared at 20-200 mg/ml in a mixture of ethanol or ethanol:benzyl alcohol, which was mixed with the fat emulsion just prior to use, and was filtered with a 1.2 μm filter to obtain a liquid for intravenous administration. On the other hand, the glutathione derivative of Comparative Example 1 was dissolved in an aqueous solution of 6%-hydroxypropyl-β-cyclodextrin/5%-glucose at 15 mg/ml to obtain an administration liquid.
(3) The administration liquid of the glutathione derivative obtained in (2) at a dose of 2 ml/kg was rapidly infused into the left auricular vein of the rabbits under no anesthesia and under restraint at a rate of 1 ml/min. Each glutathione derivative was given to three or more rabbits. At 5, 10, 15, 30, 60, 120, and 240 minutes after the completion of the administration, 1 ml of the blood was drawn from the right auricular vein in the presence of heparin, which was immediately cooled on ice. Plasma was obtained by centrifuging the blood, 1-2 volume parts of acetonitrile was added to deproteinize the supernatant, which was filtered by a 0.5 μm filter. The supernatant of the filtrate was quantitated by HPLC.

[4] = tested on: rat models of suppressed hematopoietic function by 5-FU administration; experiment: Recovery of neutrophil counts in rat models of suppressed hematopoietic function by 5-FU (Example 26); type: in vivo; conditions: 5-FU rats; 10 μg/kg-body weight/day, days 2-10; day 4 and from day 8
Text: Regarding the effect of promoting the recovery of neutrophil counts in rat models of suppressed hematopoietic function by 5-fuluorouracil administration, statistical significance was compared to the control group to compare the pharmaceutical composition containing Example 4 of the present invention as an active ingredient with the pharmaceutical composition of the conventional technology of Comparative Example 1 and granulocyte colony-stimulating factor (G-CSF).
(1) Animals used and the keeping condition: Male SD rats, 6-week old, purchased from Nippon SLC were used. The animal feed (manufactured by Oriental Yeast Co., Ltd.) and drinking water (well water treated with 0.4±0.2 ppm hypochlorous acid) were given ad libitum during the period of the experiment. The animals were housed in a hanging-type rat cage (manufactured by Nippon Cage K.K.) and kept at a temperature of 24±2° C. and a humidity of 55±5%.
(2) Creation of rat models of suppressed hematopoietic function by 5-FU administration; Creation of rat models of suppressed hematopoietic function by 5-FU (Kyowa Hakko Kogyo Co. Ltd.) administration was carried out based on the method of Akamatsu et al. (Yakuri to Chiryo(Pharmacology and Therapy), 18. (Suppl. 9), 317-356 (1990)). Thus, on the first day of the experiment, 5-FU at 50 mg/kg-body weight (dosage volume is 1 ml/kg-body weight) or the same amount of physiological saline (manufactured by Fuso Pharmaceuticals Industries, Ltd.) was intraperitoneally administered to the rats described in (1). On days 4, and 7-12, blood was drawn from the jugular vein and the EDTA-2K-treated blood was obtained. The blood was used to determine the neutrophil count using a general chemistry test instrument (Technicon H-1E, manufactured by Bayer-Sankyo K.K.) and the ratio of reticulocytes using a reticulocyte determination instrument (EPICS, XL-MCL, manufactured by Coulter K.K.). Blood was also drawn on day 1 of the experiment, and the values determined for the blood were used as the pre-administration values.
In the physiological saline administration group, no changes in neutrophil count were observed throughout the experiment period, whereas in the 5-FU administration group there was a reduction in neutrophil count with the lowest value observed on day 8 of the experiment, and the neutrophil count was recovered to the value before 5-FU administration or higher on day 10 of the experiment or after. The above results confirmed that rat models of suppressed hematopoietic function can be created by a single intraperitoneal administration of 5-FU at 50 mg/kg-body weight.
(3) Evaluation of Example 4 and Comparative Example 1 in the above model; To the model described in (2), the glutathione derivative of Example 4 combined with the fat emulsion at 10 to 30 mg/kg-body weight/day or the glutathione derivative of Comparative Example 1 dissolved in a physiological saline containing 2.5% hydroxypropyl-β-cyclodextrin at 50 mg/kg-body weight/day was repeatedly administered into the tail vein for 9 days from day 2 to 10 of the experiment. The recombinant human G-CSF formulation (hereinafter referred to as G-CSF, manufactured by Chugai Pharmaceutical Co., Ltd.) as the positive control at 10 μg/kg-body weight/day and the empty fat emulsion as the negative control were administered in a similar manner. […]

[5] = 30 mg/kg-body weight/day with fat emulsion

CCCCCCCCCCCCCCCCCCOC(=O)[C@@H](N)CCC(=O)N[C@@H](CSCc1ccccc1)C(=O)N[C@@H](C(=O)OCC)c1ccccc1.Cl [Example 1, Glu(Cys(Bzl)-D-Phg-OEt)-O(Octadecyl)hydrochloride]
Decomposition rate constant by swine liver esterase (swine liver esterase): 0.0901 10^−4/unit/min | Decomposition rate constant by rabbit liver esterase (rabbit liver esterase): 0.300 10^−4/unit/min | Half life in rabbit plasma [1]: 408.57 h | Recovery of segmented neutrophil counts relative to the negative control ([2]; 10 mg/kg-body weight/day with fat emulsion): tendency of promoting the recovery of segmented neutrophil counts | Recovery of segmented neutrophil counts relative to the negative control [2, 5]: tendency of promoting the recovery of segmented neutrophil counts | Clearance per body weight [3]: 0.03 L/h/kg | Distribution volume per body weight of the central compartment [3]: 0.06 L/kg

CCCCCCCCCCCCCCOC(=O)[C@@H](N)CCC(=O)N[C@@H](CSCc1ccccc1)C(=O)N[C@@H](C(=O)OCC)c1ccccc1.Cl [Example 6, Glu(Cys(Bzl)-D-Phg-OEt)-O(Tetradecyl)hydrochloride]
Decomposition rate constant by swine liver esterase (swine liver esterase): 2.61 10^−4/unit/min | Decomposition rate constant by rabbit liver esterase (rabbit liver esterase): 5.11 10^−4/unit/min | Half life in rabbit plasma [1]: 18.07 h | Clearance per body weight [3]: 0.29 L/h/kg | Distribution volume per body weight of the central compartment [3]: 0.08 L/kg

CCCCCCCCCCCCOC(=O)[C@@H](N)CCC(=O)N[C@@H](CSCc1ccccc1)C(=O)N[C@@H](C(=O)OCC)c1ccccc1.Cl [Example 7, Glu(Cys(Bzl)-D-Phg-OEt)-O(Dodecyl)hydrochloride]
Decomposition rate constant by swine liver esterase (swine liver esterase): 15.2 10^−4/unit/min | Decomposition rate constant by rabbit liver esterase (rabbit liver esterase): 21.1 10^−4/unit/min | Half life in rabbit plasma [1]: 5.38 h | Recovery of segmented neutrophil counts relative to the negative control [2, 5]: no changes relative to the negative control | Recovery of neutrophil counts relative to the negative control ([2]; 60 mg/kg-body weight/day with fat emulsion, days 11 and 12): tendency of promoting the recovery of neutrophil counts | Clearance per body weight [3]: 2.85 L/h/kg | Distribution volume per body weight of the central compartment [3]: 0.47 L/kg

B1: G-CSF: recombinant human G-CSF formulation, manufactured by Chugai Pharmaceutical Co., Ltd., positive control (protein, UniProt P09919 31-207, looked up)
Granulocyte …: TPLGPASSLPQSFLLKCLEQVRKIQGDGAALQEKLVSECATYKLCHPEELVLLGHSLGIPWAPLSSCPSQALQLAGCLSQLHSGLFLYQGLLQALEGISPELGPTLDTLQLDVADFATTIWQQMEELGMAPALQPTQGAMPAFASAFQRRAGGVLVASHLQSFLEVSYRVLRHLAQP
Neutrophil counts relative to the negative control group [4]: statistically significant increase in neutrophil counts
